The record followed here is patent publication EP1914235A1, “CHIRAL TETRA-HYDRO BETA-CARBOLINE DERIVATIVES AND APPLICATIONS THEREOF AS ANTIPARASITIC COMPOUNDS” (Université de Lille 2 Droit et Santé, priority 2006, dated 2008).

Assay [1] relates to P. falciparum 3D7 clone of NF54. Briefly: [3H]hypoxanthine drug sensitivity assay, 3D7 clone. Type of assay: cell-based. The conditions noted are these: Plasmodium falciparum; P. falciparum 3D7, sensitive to all anti-malarials; 48 h, [3H]hypoxanthine uptake; read-out: IC50 3D7(µg/ml). On the procedure:
(§1) The cultures are naturally asynchronous (65-75% ring stage) and are maintained in continuous log phase growth in RPMI-1640 medium (as developed by Moore et. al. at Roswell Park Memorial Institute, sold by Sigma Aldrich) supplemented with 5% washed human A+ erythrocytes, 25 mM Hepes, […] NaHCO3, and AlbuMAXII (lipid-rich bovine serum albumin) sold GIBCO, Grand Island, NY (CM). All cultures and assays were conducted at 37°C under an atmosphere of 5% CO2 and 5% O2, with a balance of N2.
(§2) The compounds were further diluted to the appropriate concentration using complete medium RPMI-1640 supplemented with 15nM cold hypoxanthine and AlbuMAXII.
Assays were performed in sterile 96-well microtitre plates; each plate contained 100 µl of parasite culture (0.5% parasitemia, 2.5% hematocrit). Each compound was tested in triplicate and parasite growth compared to control and blank (uninfected erythrocytes) wells. After 24h of incubation at 37°C, […] of [^3H]hypoxanthine was added to each well. Cultures were incubated for a further 24 h before they were harvested onto glass-fiber filter mats. The radioactivity was counted using a Wallac Microbeta® 1450 scintillation counter. […] Percentage inhibition was calculated from comparison to blank and control wells, and IC50 values calculated using Microsoft XLFit ® line fitting software (IDBS, UK).
The preliminary screen used the 3D7 strain. The compounds were tested at 6 concentrations (30, 10, 3, 1, 0.3, and 0.1 µg/ml).
(§3) Both the 3D7 clone and the K1 line were used. The compounds were diluted three-fold over at 12 different concentrations with an appropriate starting concentration based on the preliminary screen. The IC50 was determined by a sigmoidal dose response analysis using Microsoft XLFit™ (IDBS, UK).

In assay [2] the test system is Plasmodium berghei ANKA strain. In words: In vivo antiparasitic activity in infected mice (4-day dosing, parasitemia on day 5). To be noted: mice infected with P. berghei ANKA; for Activity at the dose 10 mg/kg (%): 10 mg/kg every day for 4 days; for Activity at the dose 50 mg/kg (%): 50 mg/kg every day for 4 days. On the procedure:
Female mice (TFW or BALB/c, specific pathogen free), 18-20 g, or
Infection: Blood was taken from donor mice and diluted in RPMI-1640 medium to a parasitemia of 1% (the equivalent of 1x10^7 infected erythrocytes/ml) whilst kept on ice. An inoculum of 0.2 ml was administered to each mouse by the intravenous route. At 2-4 hours post-inoculation dosing commences.
Evaluation endpoint: On day 5 blood smears of all animals (2 slides/mouse) were prepared, fixed with methanol and stained with 10% Giemsa's stain. Parasitemia was determined microscopically by counting 1000 red blood cells under oil immersion at 1000x magnification.
Each of the tested compounds of formula (I) according to the invention was prepared as a stock solution of 5 mg/ml in 10% DMSO/PBS. Insoluble compounds of formula (I) were milled with stainless steel balls for up to 24 hours to reduce particle size. Fresh dilutions were prepared each day. The route of administration of tested compounds is intra peritoneal (i.p.).
Compounds were formulated at 10 mg/kg or at 50 mg/kg in a standard suspension vehicle (0.5% carboxymethylcellulose, 0.5% benzyl alcohol, 0.4% Tween® 80 in 0.9% NaCl) for both oral and i.p. administration.
Dosing was over a 4 day period as above, and evaluation was also as above.

Another assay relates to P. falciparum K1 strain. In words: [3H]hypoxanthine drug sensitivity assay, K1 strain. Type of assay: cell-based. To be noted: Plasmodium falciparum, K1; read-out: IC50 K1. The method, then:
as §1, §2
Assays were performed in sterile 96-well microtitre plates; each plate contained 100 µl of parasite culture (0.5% parasitemia, 2.5% hematocrit). Each compound was tested in triplicate and parasite growth compared to control and blank (uninfected erythrocytes) wells. After 24h of incubation at 37°C, […] of [^3H]hypoxanthine was added to each well. Cultures were incubated for a further 24 h before they were harvested onto glass-fiber filter mats. The radioactivity was counted using a Wallac Microbeta® 1450 scintillation counter. The results were recorded as counts per minute (CPM) per well at each compound concentration, control and blank wells. Percentage inhibition was calculated from comparison to blank and control wells, and IC50 values calculated using Microsoft XLFit ® line fitting software (IDBS, UK).
as §3

The structures appear in SMILES notation. Values after ≈ are worked out from the molar mass of the structure shown.

With `CN(C)c1ccc(CN2CC[C@@H](N3CC(=O)N4[C@H](c5ccc6c(c5)OCO6)c5[nH]c6ccccc6c5C[C@@H]4C3=O)C2)cc1` [Compound 26, (6R,12aR)-6-Benzo[1,3]dioxol-5-yl-2-[(R)-1-(4-dimethylamino-benzyl)-pyrrolidin-3-yl]-2,3,6,7,12,12a-hexahydro-pyrazino[1',2':1,6]pyrido[3,4-b]indole-1,4-dione], the IC50 in assay [1] was determined as 0.006 µg/mL (≈ 0.0104 µM). Moreover, in assay [2], the “Activity at the dose 10 mg/kg (%)” value is 15% and the “Activity at the dose 50 mg/kg (%)” value is given as 17%. Besides, the IC50 in the assay with P. falciparum K1 strain is 0.14 mg/L (≈ 0.242 µM).
As for `O=C1[C@H]2Cc3c([nH]c4ccccc34)[C@@H](c3ccc4c(c3)OCO4)N2C(=O)CN1[C@@H]1CCN(Cc2ccccn2)C1` [Compound 27, (6R,12aR)-6-Benzo[1,3]dioxol-5-yl-2-((R)-1-pyridin-2-ylmethyl-pyrrolidin-3-yl)-2,3,6,7,12,12a-hexahydro-pyrazino [1',2':1,6]pyrido[3,4-b]indole-1,4-dione], the IC50 in assay [1] is 0.08 µg/mL (≈ 0.149 µM); in the assay on P. falciparum K1 strain it was 0.2 mg/L (≈ 0.373 µM). For the same compound, the “Activity at the dose 50 mg/kg (%)” value in assay [2] was found to be 10%.
With `Cn1ccnc1CN1CC[C@@H](N2CC(=O)N3[C@H](c4ccc5c(c4)OCO5)c4[nH]c5ccccc5c4C[C@@H]3C2=O)C1` [Compound 28, (6R,12aR)-6-Benzo[1,3]dioxol-5-yl-2-[(R)-1-(1-methyl-1H-imidazol-2-ylmethyl)-pyrrolidin-3-yl]-2,3,6,7,12,12a-hexahydro-pyrazino[1',2':1,6]pyrido[3,4-b]indole-1,4-dione], the IC50 in assay [1] worked out at 0.09 µg/mL (≈ 0.167 µM). In addition, in assay [2], the “Activity at the dose 10 mg/kg (%)” value was found to be 24% and the “Activity at the dose 50 mg/kg (%)” value was found to be 32%. In the assay with P. falciparum K1 strain, the IC50 was determined as 0.07 mg/L (≈ 0.13 µM).
Take `Cn1ccnc1CN1CC[C@@H](N2CC(=O)N3[C@@H](c4ccc5c(c4)OCO5)c4[nH]c5ccccc5c4C[C@@H]3C2=O)C1` [Compound 29, (6S,12aR)-6-Benzo[1,3]dioxol-5-yl-2-[(R)-1-(1-methyl-1H-imidazol-2-ylmethyl)-pyrrolidin-3-yl]-2,3,6,7,12,12a-hexahydro-pyrazino[1',2':1,6]pyrido[3,4-b]indole-1,4-dione]: the figures for the IC50 (in assay [1]; in the assay on P. falciparum K1 strain) were 0.5 µg/mL (≈ 0.928 µM) and 0.09 mg/L (≈ 0.167 µM), respectively. Also, the “Activity at the dose 50 mg/kg (%)” value in assay [2] is 19%.
Taken in the same sequence, the figures for `O=C1[C@H]2Cc3c([nH]c4ccccc34)[C@@H](c3ccc(Cl)nc3)N2C(=O)CN1[C@@H]1CCN(Cc2ccccc2)C1` [Compound 84c, (6R,12aR)-2-((R)-1-Benzyl-pyrrolidin-3-yl)-6-(6-chloro-pyridin-3-yl)-2,3,6,7,12,12a-hexahydro-pyrazino[1',2':1,6] pyrido[3,4-b]indole-1,4-dione] were 0.07 µg/mL (≈ 0.133 µM), 0.11 mg/L (≈ 0.209 µM) and 9.1%.
